Measured values reported in patent US7517874B2 (priority 2007, dated 2009).

Assays:
[1] = target: human CB1 receptor (hCB1) (Homo sapiens, UniProt P21554); assay: cell-based; format: cell-based; details: for +/− HCB1: agonist or inverse agonist at hCB1
In short: (§1)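 Readout: LANCE TR-FRET cAMP, back-calculated from a concurrent standard curve and scaled between forskolin-only and forskolin + 1 μM CP55,940 wells. EC50 and intrinsic activity came from four-parameter fits.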

rat CB2 receptor (rCB2) = target: T1, rat CB2 receptor (rCB2) (Rattus norvegicus, UniProt Q9QZN9); assay: cell-based; format: cell-based; details: for +/− RCB2: agonist or inverse agonist at rCB2
T1 sequence (Q9QZN9 1-360): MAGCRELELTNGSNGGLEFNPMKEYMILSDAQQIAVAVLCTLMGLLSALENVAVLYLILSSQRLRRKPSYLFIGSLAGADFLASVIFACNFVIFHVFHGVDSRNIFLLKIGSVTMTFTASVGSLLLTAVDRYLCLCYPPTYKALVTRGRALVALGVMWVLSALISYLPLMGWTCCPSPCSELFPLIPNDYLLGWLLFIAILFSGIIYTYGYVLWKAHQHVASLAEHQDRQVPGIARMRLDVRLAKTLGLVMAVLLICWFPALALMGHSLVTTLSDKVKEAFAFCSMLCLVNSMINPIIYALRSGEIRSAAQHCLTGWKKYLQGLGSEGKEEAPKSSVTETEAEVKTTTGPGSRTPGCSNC
In short: as §1

human CB1 receptor (hCB1), sequence (P21554 whole entry): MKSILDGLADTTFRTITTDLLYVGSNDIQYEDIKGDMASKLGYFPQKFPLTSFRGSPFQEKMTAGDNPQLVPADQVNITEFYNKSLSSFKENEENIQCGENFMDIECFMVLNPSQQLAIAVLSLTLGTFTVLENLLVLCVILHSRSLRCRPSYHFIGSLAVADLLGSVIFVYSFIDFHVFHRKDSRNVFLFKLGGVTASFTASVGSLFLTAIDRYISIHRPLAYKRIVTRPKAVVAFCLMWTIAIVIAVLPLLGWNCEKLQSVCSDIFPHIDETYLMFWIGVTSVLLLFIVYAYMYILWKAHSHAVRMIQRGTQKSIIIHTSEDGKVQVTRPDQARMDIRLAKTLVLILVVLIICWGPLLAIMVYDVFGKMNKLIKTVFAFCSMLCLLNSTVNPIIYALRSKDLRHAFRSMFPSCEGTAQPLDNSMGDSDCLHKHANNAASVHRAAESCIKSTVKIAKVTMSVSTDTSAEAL

Row | SMILES | EC50 [1] [µM] | +/− RCB2 (rat CB2 receptor (rCB2)) | EC50 (rat CB2 receptor (rCB2)) [µM] | +/− HCB1 [1]
1 | CNC(=O)[C@@H](NC(=O)c1nc(-c2cccc(NS(C)(=O)=O)c2)n2c1CN(C)CCC2)C(C)(C)C [Compound 421, (S)-N-(3,3-dimethyl-1-(methylamino)-1-oxobutan-2-yl)-8-methyl-3-(3-(methylsulfonamido)phenyl)-6,7,8,9-tetrahydro-5H-imidazo[1,5-a][1,4]diazepine-1-carboxamide] | > 10 | − |  | 
2 | CNC(=O)[C@@H](NC(=O)c1nc(-c2cccc(C(N)=O)c2)n2c1CN(C)CCC2)C(C)(C)C [Compound 422, (S)-3-(3-carbamoylphenyl)-N-(3,3-dimethyl-1-(methylamino)-1-oxobutan-2-yl)-8-methyl-6,7,8,9-tetrahydro-5H-imidazo[1,5-a][1,4]diazepine-1-carboxamide] | > 10 |  | > 10 | 
3 | CNC(=O)[C@@H](NC(=O)c1nc(-c2ccc(C(N)=O)cc2)n2c1CN(C)CCC2)C(C)(C)C [Compound 423, (S)-3-(4-carbamoylphenyl)-N-(3,3-dimethyl-1-(methylamino)-1-oxobutan-2-yl)-8-methyl-6,7,8,9-tetrahydro-5H-imidazo[1,5-a][1,4]diazepine-1-carboxamide] | > 10 |  | > 10 | 
4 | CNC(=O)[C@@H](NC(=O)c1nc(-c2cc(F)c(OC)cc2F)n2c1CN(C)CCC2)C(C)(C)C [Compound 424, (S)-3-(2,5-difluoro-4-methoxyphenyl)-N-(3,3-dimethyl-1-(methylamino)-1-oxobutan-2-yl)-8-methyl-6,7,8,9-tetrahydro-5H-imidazo[1,5-a][1,4]diazepine-1-carboxamide] | > 10 | + |  | 
5 | CNC(=O)[C@@H](NC(=O)c1nc(-c2ccc(F)c(C#N)c2)n2c1CN(C)CCC2)C(C)(C)C [Compound 425, (S)-3-(3-cyano-4-fluorophenyl)-N-(3,3-dimethyl-1-(methylamino)-1-oxobutan-2-yl)-8-methyl-6,7,8,9-tetrahydro-5H-imidazo[1,5-a][1,4]diazepine-1-carboxamide] | > 10 | + |  | 
6 | CNC(=O)[C@@H](NC(=O)c1nc(-c2ccc(C(=O)N(C)C)c(F)c2)n2c1CN(C)CCC2)C(C)(C)C [Compound 426, (S)-N-(3,3-dimethyl-1-(methylamino)-1-oxobutan-2-yl)-3-(4-(dimethylcarbamoyl)-3-fluorophenyl)-8-methyl-6,7,8,9-tetrahydro-5H-imidazo[1,5-a][1,4]diazepine-1-carboxamide] | > 10 |  | > 10 | 
7 | CNC(=O)[C@@H](NC(=O)c1nc(-c2ccc(C(N)=O)c(F)c2)n2c1CN(C)CCC2)C(C)(C)C [Compound 427, (S)-3-(4-carbamoyl-3-fluorophenyl)-N-(3,3-dimethyl-1-(methylamino)-1-oxobutan-2-yl)-8-methyl-6,7,8,9-tetrahydro-5H-imidazo[1,5-a][1,4]diazepine-1-carboxamide] | > 10 |  | > 10 | 
8 | CNC(=O)[C@@H](NC(=O)c1nc(-c2ccc(C3CC(=O)NN3)cc2)n2c1CN(C)CCC2)C(C)(C)C (stereo partly drawn) [Compound 428, N-((S)-3,3-dimethyl-1-(methylamino)-1-oxobutan-2-yl)-8-methyl-3-(4-(5-oxopyrazolidin-3-yl)phenyl)-6,7,8,9-tetrahydro-5H-imidazo[1,5-a][1,4]diazepine-1-carboxamide] | > 10 |  | > 10 | 
9 | CNC(=O)[C@@H](NC(=O)c1nc(-c2ccc(F)c(C(N)=O)c2)n2c1CN(C)CCC2)C(C)(C)C [Compound 429, (S)-3-(3-carbamoyl-4-fluorophenyl)-N-(3,3-dimethyl-1-(methylamino)-1-oxobutan-2-yl)-8-methyl-6,7,8,9-tetrahydro-5H-imidazo[1,5-a][1,4]diazepine-1-carboxamide] | > 10 | + |  | 
10 | C=Cc1nc(C(=O)N[C@H](C(=O)NC)C(C)(C)C)c2n1CCCN(C)C2 [Compound 430, (S)-N-(3,3-dimethyl-1-(methylamino)-1-oxobutan-2-yl)-8-methyl-3-vinyl-6,7,8,9-tetrahydro-5H-imidazo[1,5-a][1,4]diazepine-1-carboxamide] | > 10 | + |  | 
11 | CNC(=O)[C@@H](NC(=O)c1nc(-c2ccccc2C(N)=O)n2c1CN(C)CCC2)C(C)(C)C [Compound 431, (S)-3-(2-carbamoylphenyl)-N-(3,3-dimethyl-1-(methylamino)-1-oxobutan-2-yl)-8-methyl-6,7,8,9-tetrahydro-5H-imidazo[1,5-a][1,4]diazepine-1-carboxamide] | > 10 |  | > 10 | 
12 | CNC(=O)[C@@H](NC(=O)c1nc(-c2cn[nH]c2)n2c1CN(C)CCC2)C(C)(C)C [Compound 432, (S)-N-(3,3-dimethyl-1-(methylamino)-1-oxobutan-2-yl)-8-methyl-3-(1H-pyrazol-4-yl)-6,7,8,9-tetrahydro-5H-imidazo[1,5-a][1,4]diazepine-1-carboxamide] | > 10 | + |  | 
13 | CNC(=O)[C@@H](NC(=O)c1nc(-c2cccc(Cl)c2)n2c1CN(C)CCC2)C(C)(C)C [Compound 433, (S)-3-(3-chlorophenyl)-N-(3,3-dimethyl-1-(methylamino)-1-oxobutan-2-yl)-8-methyl-6,7,8,9-tetrahydro-5H-imidazo[1,5-a][1,4]diazepine-1-carboxamide] | > 10 |  | > 10 | 
14 | CCC/C=C/c1nc(C(=O)N[C@H](C(=O)NC)C(C)(C)C)c2n1CCCN(C)C2 [Compound 434, (S,E)-N-(3,3-dimethyl-1-(methylamino)-1-oxobutan-2-yl)-8-methyl-3-(pent-1-enyl)-6,7,8,9-tetrahydro-5H-imidazo[1,5-a][1,4]diazepine-1-carboxamide] | > 10 | + |  | 
15 | CNC(=O)[C@@H](NC(=O)c1nc(C2CC2)n2c1CN(C)CCC2)C(C)(C)C [Compound 435, (S)-3-cyclopropyl-N-(3,3-dimethyl-1-(methylamino)-1-oxobutan-2-yl)-8-methyl-6,7,8,9-tetrahydro-5H-imidazo[1,5-a][1,4]diazepine-1-carboxamide] | > 10 | + |  | 
16 | CNC(=O)[C@@H](NC(=O)c1nc(/C=C/C2CC2)n2c1CN(C)CCC2)C(C)(C)C [Compound 436, (S,E)-3-(2-cyclopropylvinyl)-N-(3,3-dimethyl-1-(methylamino)-1-oxobutan-2-yl)-8-methyl-6,7,8,9-tetrahydro-5H-imidazo[1,5-a][1,4]diazepine-1-carboxamide] |  | + |  | +
17 | CNC(=O)[C@@H](NC(=O)c1nc(-c2ccc(F)cc2)n2c1CN(C)CCC2)C(C)(C)C [Compound 437, (S)-N-(3,3-dimethyl-1-(methylamino)-1-oxobutan-2-yl)-3-(4-fluorophenyl)-8-methyl-6,7,8,9-tetrahydro-5H-imidazo[1,5-a][1,4]diazepine-1-carboxamide] | > 10 |  | > 10 | 
18 | CNC(=O)[C@@H](NC(=O)c1nc(-c2cccc(C(F)(F)F)c2)n2c1CN(C)CCC2)C(C)(C)C [Compound 438, (S)-N-(3,3-dimethyl-1-(methylamino)-1-oxobutan-2-yl)-8-methyl-3-(3-(trifluoromethyl)phenyl)-6,7,8,9-tetrahydro-5H-imidazo[1,5-a][1,4]diazepine-1-carboxamide] | > 10 | − |  | 
19 | CNC(=O)[C@@H](NC(=O)c1nc(/C=C/C2CCCCC2)n2c1CN(C)CCC2)C(C)(C)C [Compound 439] | > 10 | + |  | 
20 | CNC(=O)[C@@H](NC(=O)c1nc(-c2ccoc2)n2c1CN(C)CCC2)C(C)(C)C [Compound 440, (S)-N-(3,3-dimethyl-1-(methylamino)-1-oxobutan-2-yl)-3-(furan-3-yl)-8-methyl-6,7,8,9-tetrahydro-5H-imidazo[1,5-a][1,4]diazepine-1-carboxamide] | > 10 | + |  | 
21 | C=C(C)c1nc(C(=O)N[C@H](C(=O)NC)C(C)(C)C)c2n1CCCN(C)C2 [Compound 441, (S)-N-(3,3-dimethyl-1-(methylamino)-1-oxobutan-2-yl)-8-methyl-3-(prop-1-en-2-yl)-6,7,8,9-tetrahydro-5H-imidazo[1,5-a][1,4]diazepine-1-carboxamide] |  | + |  | +
22 | CNC(=O)[C@@H](NC(=O)c1nc(-c2c(C)noc2C)n2c1CN(C)CCC2)C(C)(C)C [Compound 442, N-((S)-3,3-dimethyl-1-(methylamino)-1-oxobutan-2-yl)-3-(3,5-dimethylisoxazol-4-yl)-8-methyl-6,7,8,9-tetrahydro-5H-imidazo[1,5-a][1,4]diazepine-1-carboxamide] |  | + |  | +
23 | CNC(=O)[C@@H](NC(=O)c1nc(-c2ccc(C)o2)n2c1CN(C)CCC2)C(C)(C)C [Compound 443, (S)-N-(3,3-dimethyl-1-(methylamino)-1-oxobutan-2-yl)-8-methyl-3-(5-methylfuran-2-yl)-6,7,8,9-tetrahydro-5H-imidazo[1,5-a][1,4]diazepine-1-carboxamide] | > 10 | − |  | 
24 | CNC(=O)[C@@H](NC(=O)c1nc(-c2cccc3cccnc23)n2c1CN(C)CCC2)C(C)(C)C [Compound 444] | > 10 | − |  | 
25 | CNC(=O)[C@@H](NC(=O)c1nc(/C=C/CC2CCCC2)n2c1CN(C)CCC2)C(C)(C)C [Compound 445, (S,E)-3-(3-cyclopentylprop-1-enyl)-N-(3,3-dimethyl-1-(methylamino)-1-oxobutan-2-yl)-8-methyl-6,7,8,9-tetrahydro-5H-imidazo[1,5-a][1,4]diazepine-1-carboxamide] | > 10 | − |  | 
